# Reference: patent publication US10597388B2, “Pyridazinone herbicides” (FMC CORPORATION, priority 2014, dated 2020)
# What was measured:
# Assay in all cases: Test D controlled growth environment herbicide test, pre- and postemergence
# Type in all cases: in vivo
# [1] = system: buckwheat, wild (wild buckwheat, Polygonum convolvulus)
# Outline: (§1)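 Rating is visual, 0–100 scale (100 = complete control), made against untreated plants 14–21 d after treatment in controlled growth conditions. Postemergence sprays went onto 1- to 4-leaf plants in peat medium; preemergence sprays onto silt loam after sowing; formulation included a surfactant.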
# [2] = system: foxtail, green (green foxtail, Setaria viridis)
# Outline: as §1
# [3] = system: blackgrass (Alopecurus myosuroides)
# Outline: as §1
# [4] = system: ryegrass, Italian (Italian ryegrass, Lolium multiflorum)
# Outline: as §1
# [5] = system: barley, spring (spring barley, Hordeum vulgare)
# Outline: as §1
# [6] = system: bluegrass (annual bluegrass, Poa annua)
# Outline: as §1
# [7] = system: wheat, spring (spring wheat, Triticum aestivum)
# Outline: as §1
# [8] = system: oat, wild (wild oat, Avena fatua)
# Outline: as §1
# [9] = system: chamomile (scentless chamomile, Matricaria inodora)
# Outline: as §1
# [10] = system: canarygrass (Phalaris minor)
# Outline: as §1
# [11] = system: radish, wild (wild radish, Raphanus raphanistrum)
# Outline: as §1
# [12] = system: pigweed (Amaranthus retroflexus)
# Outline: as §1
# [13] = system: field violet (Viola arvensis)
# Outline: as §1
# [14] = Postemergence, 31 g ai/ha, scale 0 to 100 (0 no effect, 100 complete control)
# [15] = Postemergence, 125 g ai/ha, visual rating on scale 0 (no effect) to 100 (complete control), 14 to 21 d
# [16] = Postemergence, 250 g ai/ha, scale 0 to 100 (0 no effect, 100 complete control)
# [17] = Preemergence, 62 g ai/ha, scale 0 to 100 (0 no effect, 100 complete control)
# [18] = Preemergence, 125 g ai/ha, scale 0 to 100 (0 no effect, 100 complete control)
# [19] = Preemergence, 250 g ai/ha, scale 0 to 100 (0 no effect, 100 complete control)
# [20] = postemergence, 62 g ai/ha, scale 0 to 100, 0 no effect, 100 complete control
structure (smiles),measurement,setting,value
COc1nn(C)c(=O)c(-c2c(C)ccc3ccccc23)c1OC(=O)OC(C)C [Compound 36],"Buckwheat, Wild plant response rating",[1]; [14],100
same,"Plant response rating, Buckwheat, Wild",[1]; [15],100
same,"Plant response rating, Buckwheat, Wild",[1]; [16],100
same,"Plant response rating (scale of 0 to 100), Buckwheat, Wild","[1]; Preemergence, 31 g ai/ha",0
same,"Plant response rating, Buckwheat, Wild",[1]; [17],0
same,"Plant response rating, Buckwheat, Wild",[1]; [18],10
same,"Plant response rating, Buckwheat, Wild",[1]; [19],10
same,"Plant response rating, Buckwheat, Wild",[1]; [20],100
same,"Foxtail, Green plant response rating",[2]; [14],35
same,"Plant response rating, Foxtail, Green",[2]; [15],80
same,"Plant response rating, Foxtail, Green",[2]; [16],90
same,"Plant response rating (scale of 0 to 100), Foxtail, Green","[2]; Preemergence, 31 g ai/ha",45
same,"Plant response rating, Foxtail, Green",[2]; [17],25
same,"Plant response rating, Foxtail, Green",[2]; [18],70
same,"Plant response rating, Foxtail, Green",[2]; [19],75
same,"Plant response rating, Foxtail, Green",[2]; [20],45
same,Blackgrass plant response rating,[3]; [14],25
same,"Plant response rating, Blackgrass",[3]; [15],45
same,"Plant response rating, Blackgrass",[3]; [16],70
same,"Plant response rating (scale of 0 to 100), Blackgrass","[3]; Preemergence, 31 g ai/ha",15
same,"Plant response rating, Blackgrass",[3]; [17],30
same,"Plant response rating, Blackgrass",[3]; [18],35
same,Blackgrass plant response rating,[3]; [19],50
same,"Plant response rating, Blackgrass",[3]; [20],35
same,"Ryegrass, Italian plant response rating",[4]; [14],75
same,"Plant response rating, Ryegrass, Italian",[4]; [15],90
same,"Plant response rating, Ryegrass, Italian",[4]; [16],90
same,"Plant response rating (scale of 0 to 100), Ryegrass, Italian","[4]; Preemergence, 31 g ai/ha",20
same,"Plant response rating, Ryegrass, Italian",[4]; [17],65
same,"Plant response rating, Ryegrass, Italian",[4]; [18],70
same,"Plant response rating, Ryegrass, Italian",[4]; [19],70
same,"Plant response rating, Ryegrass, Italian",[4]; [20],80
same,"Plant response rating, Barley, Spring",[5]; [14],0
same,"Plant response rating, Barley, Spring",[5]; [15],0
same,"Plant response rating, Barley, Spring",[5]; [16],10
same,"Plant response rating (scale of 0 to 100), Barley, Spring","[5]; Preemergence, 31 g ai/ha",0
same,"Plant response rating, Barley, Spring",[5]; [17],0
same,"Plant response rating, Barley, Spring",[5]; [18],0
same,"Barley, Spring plant response rating",[5]; [19],0
same,"Plant response rating, Barley, Spring",[5]; [20],0
same,Bluegrass plant response rating,[6]; [14],10
same,"Plant response rating, Bluegrass",[6]; [15],40
same,"Plant response rating, Bluegrass",[6]; [16],35
same,"Plant response rating (scale of 0 to 100), Bluegrass","[6]; Preemergence, 31 g ai/ha",0
same,"Plant response rating, Bluegrass",[6]; [17],15
same,"Plant response rating, Bluegrass",[6]; [18],10
same,Bluegrass plant response rating,[6]; [19],15
same,"Plant response rating, Bluegrass",[6]; [20],15
same,"Wheat, Spring plant response rating",[7]; [14],0
same,"Plant response rating, Wheat, Spring",[7]; [15],0
same,"Plant response rating, Wheat, Spring",[7]; [16],10
same,"Plant response rating (scale of 0 to 100), Wheat, Spring","[7]; Preemergence, 31 g ai/ha",0
same,"Plant response rating, Wheat, Spring",[7]; [17],0
same,"Plant response rating, Wheat, Spring",[7]; [18],0
same,"Plant response rating, Wheat, Spring",[7]; [19],30
same,"Plant response rating, Wheat, Spring",[7]; [20],0
same,"Oat, Wild plant response rating",[8]; [14],35
same,"Plant response rating, Oat, Wild",[8]; [15],85
same,"Plant response rating, Oat, Wild",[8]; [16],95
same,"Plant response rating (scale of 0 to 100), Oat, Wild","[8]; Preemergence, 31 g ai/ha",35
same,"Plant response rating, Oat, Wild",[8]; [17],45
same,"Plant response rating, Oat, Wild",[8]; [18],75
same,"Plant response rating, Oat, Wild",[8]; [19],85
same,"Plant response rating, Oat, Wild",[8]; [20],80
same,Chamomile plant response rating,[9]; [14],95
same,"Plant response rating, Chamomile",[9]; [15],100
same,"Plant response rating, Chamomile",[9]; [16],100
same,"Plant response rating, Chamomile",[9]; [20],95
same,Canarygrass plant response rating,[10]; [14],15
same,"Plant response rating, Canarygrass",[10]; [15],55
same,"Plant response rating, Canarygrass",[10]; [16],80
same,"Plant response rating (scale of 0 to 100), Canarygrass","[10]; Preemergence, 31 g ai/ha",0
same,"Plant response rating, Canarygrass",[10]; [17],45
same,"Plant response rating, Canarygrass",[10]; [18],40
same,"Plant response rating, Canarygrass",[10]; [19],65
same,"Plant response rating, Canarygrass",[10]; [20],40
same,"Radish, Wild plant response rating",[11]; [14],80
same,"Plant response rating, Radish, Wild",[11]; [15],100
same,"Plant response rating, Radish, Wild",[11]; [16],100
same,"Plant response rating (scale of 0 to 100), Radish, Wild","[11]; Preemergence, 31 g ai/ha",0
same,"Plant response rating, Radish, Wild",[11]; [17],0
same,"Plant response rating, Radish, Wild",[11]; [18],50
same,"Plant response rating, Radish, Wild",[11]; [19],70
same,"Plant response rating, Radish, Wild",[11]; [20],90
same,Pigweed plant response rating,[12]; [14],100
same,"Plant response rating, Pigweed",[12]; [15],100
same,"Plant response rating, Pigweed",[12]; [16],100
same,"Plant response rating (scale of 0 to 100), Pigweed","[12]; Preemergence, 31 g ai/ha",55
same,"Plant response rating, Pigweed",[12]; [17],75
same,"Plant response rating, Pigweed",[12]; [18],100
same,"Plant response rating, Pigweed",[12]; [19],100
same,"Plant response rating, Pigweed",[12]; [20],100
same,Field Violet plant response rating,[13]; [14],70
same,"Plant response rating, Field Violet",[13]; [15],90
same,"Plant response rating, Field Violet",[13]; [16],90
same,"Plant response rating (scale of 0 to 100), Field Violet","[13]; Preemergence, 31 g ai/ha",15
same,"Plant response rating, Field Violet",[13]; [17],10
same,"Plant response rating, Field Violet",[13]; [18],70
same,"Plant response rating, Field Violet",[13]; [19],95
same,"Plant response rating, Field Violet",[13]; [20],85
